Where no end group is shown, it is not given here. [ ]: non-standard residue; d: D form. Cit = NC(=O)NCCC[C@H](N)C(=O)O
System: IgG antibodies in RA and NHS sera
Test: ELISA with differently citrullinated EBNA-2(338-358) peptides (Example 6)
Format: binding, human
Conditions: for NHS positive sera: 23 normal healthy subjects; for NHS positive sera / RA positive sera: positive = greater than 97.5th percentile of normal control group; for RA positive sera: 24 RA patients; for reactivity with RA sera (in words): 24 RA sera, relevant = more than 25% positive
From the text: The role of the number and of the position of citrullines inside EBNA-2(338-358) sequence in the detection of specific antibodies in RA sera was investigated by means of differently citrullinated peptides (Table 1).
It is believed that these two positions relate to two different antigenic regions.

Substance | NHS positive sera | RA positive sera | reactivity with RA sera (in words) | specificity and selectivity (in words) (RA versus NHS sera)
GQSCitGQSCitGRGCitGRGRGRGKG (GQS[Cit]GQS[Cit]GRG[Cit]GRGRGRGKG) | 1/23 | 12/24 | most active peptide in this series | 
GQSCitGQSCitGRGRGRGRGRGKG (GQS[Cit]GQS[Cit]GRGRGRGRGRGKG) [[Cit^341, Cit^345]EBNA2(338-358)] | 0/23 | 12/24 |  | 
GQSCitGQSRGRGRGCitGRGRGKG (GQS[Cit]GQSRGRGRG[Cit]GRGRGKG; not fully specified) [[Cit^341, Cit^349]EBNA2(338-358)] | 0/23 | 6/24 |  | 
GQSCitGQSRGRGRGRGRGCitGKG (GQS[Cit]GQSRGRGRGRGRG[Cit]GKG) [[Cit^341, Cit^355]EBNA2(338-358)] | 1/23 | 8/24 |  | 
GQSCitGQSRGRGRGRGRGRGKG (GQS[Cit]GQSRGRGRGRGRGRGKG) [[Cit^341]EBNA2(338-358)] | 1/23 | 4/24 |  | 
GQSRGQSCitGCitGCitGRGRGRGKG (GQSRGQS[Cit]G[Cit]G[Cit]GRGRGRGKG) [[Cit345, Cit^347, Cit^349]EBNA2(338-358)] | 1/23 | 9/24 |  | 
GQSRGQSCitGCitGRGRGRGRGKG (GQSRGQS[Cit]G[Cit]GRGRGRGRGKG) [[Cit^345, Cit^347]EBNA2(338-358)] | 1/23 | 10/24 |  | 
GQSRGQSCitGRGCitGCitGRGRGKG (GQSRGQS[Cit]GRG[Cit]G[Cit]GRGRGKG) | 1/23 | 8/24 |  | 
GQSRGQSCitGRGCitGRGCitGRGKG (GQSRGQS[Cit]GRG[Cit]GRG[Cit]GRGKG) | 1/23 | 10/24 |  | 
GQSRGQSCitGRGCitGRGRGCitGKG (GQSRGQS[Cit]GRG[Cit]GRGRG[Cit]GKG) | 0/23 | 8/24 |  | 
GQSRGQSCitGRGCitGRGRGRGKG (GQSRGQS[Cit]GRG[Cit]GRGRGRGKG) [[Cit^345, Cit^349]EBNA2(338-358)] | 0/23 | 15/24 | most active and selective di-citrullinated peptide | 
GQSRGQSCitGRGRGCitGRGRGKG (GQSRGQS[Cit]GRGRG[Cit]GRGRGKG) [[Cit^345, Cit^351]EBNA2(338-358)] | 1/23 | 12/24 |  | 
GQSRGQSCitGRGRGRGCitGRGKG (GQSRGQS[Cit]GRGRGRG[Cit]GRGKG) [[Cit^345, Cit^353]EBNA2(338-358)] | 2/23 | 6/24 |  | 
GQSRGQSCitGRGRGRGRGCitGKG (GQSRGQS[Cit]GRGRGRGRG[Cit]GKG) [[Cit^345, Cit^355]EBNA2(338-358)] | 0/23 | 11/24 |  | 
GQSRGQSCitGRGRGRGRGRGKG (GQSRGQS[Cit]GRGRGRGRGRGKG) [[Cit^345]EBNA2(338-358)] | 1/23 | 9/24 |  | 
GQSRGQSRGCitGRGCitGRGRGKG (GQSRGQSRG[Cit]GRG[Cit]GRGRGKG; not fully specified) [[Cit^347, Cit^349]EBNA2(338-358)] | 1/23 | 5/24 |  | 
GQSRGQSRGCitGRGRGRGRGKG (GQSRGQSRG[Cit]GRGRGRGRGKG) [[Cit^347]EBNA2(338-358)] | 1/23 | 6/24 |  | 
GQSRGQSRGRGCitGCitGRGRGKG (GQSRGQSRGRG[Cit]G[Cit]GRGRGKG) [[Cit^349, Cit^351]EBNA2(338-358)] | 2/23 | 15/24 | very active | less specific and selective
GQSRGQSRGRGCitGRGRGRGKG (GQSRGQSRGRG[Cit]GRGRGRGKG) [[Cit^349]EBNA2(338-358)] | 1/23 | 9/24 |  | 
GQSRGQSRGRGRGCitGCitGRGKG (GQSRGQSRGRGRG[Cit]G[Cit]GRGKG; not fully specified) [[Cit^349, Cit^353]EBNA2(338-358)] | 0/23 | 12/24 |  | 
GQSRGQSRGRGRGCitGRGCitGKG (GQSRGQSRGRGRG[Cit]GRG[Cit]GKG; not fully specified) [[Cit^349, Cit^355]EBNA2(338-358)] | 0/23 | 9/24 |  | 
GQSRGQSRGRGRGCitGRGRGKG (GQSRGQSRGRGRG[Cit]GRGRGKG) [[Cit^351]EBNA2(338-358)] | 1/23 | 6/24 |  | 
GQSRGQSRGRGRGRGCitGRGKG (GQSRGQSRGRGRGRG[Cit]GRGKG) [[Cit^353]EBNA2(338-358)] | 0/23 | 6/24 |  | 
GQSRGQSRGRGRGRGRGCitGKG (GQSRGQSRGRGRGRGRG[Cit]GKG) [[Cit^355]EBNA2(338-358)] | 2/23 | 3/24 |  | 
